From PMC10239507, “Development of allosteric and selective CDK2 inhibitors for contraception with negative cooperativity to cyclin binding” (Nature Communications, 2023)

Assays:
Assay in all cases: biochemical
[1] = target: T1, 371 kinases (kinase named in each endpoint) (Homo sapiens, UniProt O14578); details: STK21/CIT
T1 construct: purchased Reaction Biology

[2] = target: T2, 371 kinases (kinase named in each endpoint) (Homo sapiens, UniProt Q8IYT8); details: ULK2
T2 construct: purchased Reaction Biology

[3] = target: T3, 371 kinases (kinase named in each endpoint) (Homo sapiens, UniProt Q8TD08); details: ERK7/MAPK15
T3 construct: purchased Reaction Biology

[4] = target: T4, 371 kinases (kinase named in each endpoint) (Homo sapiens, UniProt Q9H2G2); details: SLK/STK2
T4 construct: purchased Reaction Biology

[5] = target: T5, 371 kinases (kinase named in each endpoint) (Homo sapiens, UniProt P06239); details: LCK
T5 construct: purchased Reaction Biology

[6] = target: T6, 371 kinases (kinase named in each endpoint) (Homo sapiens, UniProt Q13464); details: ROCK1
T6 construct: purchased Reaction Biology

[7] = target: T7, 371 kinases (kinase named in each endpoint) (Homo sapiens, UniProt P78368); details: CK1G2
T7 construct: purchased Reaction Biology

[8] = target: T8, 371 kinases (kinase named in each endpoint) (Homo sapiens, UniProt Q16566); details: CAMK4
T8 construct: purchased Reaction Biology

[9] = target: T9, 371 kinases (kinase named in each endpoint) (Homo sapiens, UniProt Q86V86); details: PIM3
T9 construct: purchased Reaction Biology

[10] = target: T10, 371 kinases (kinase named in each endpoint) (Homo sapiens, UniProt Q96L34); details: MARK4
T10 construct: purchased Reaction Biology

[11] = target: T11, 371 kinases (kinase named in each endpoint) (Homo sapiens, UniProt P57059); details: SIK1
T11 construct: purchased Reaction Biology

[12] = target: T12, 371 kinases (kinase named in each endpoint) (Homo sapiens, UniProt Q13188); details: MST2/STK3
T12 construct: purchased Reaction Biology

[13] = target: T13, 371 kinases (kinase named in each endpoint) (Homo sapiens, UniProt P43405); details: SYK
T13 construct: purchased Reaction Biology

[14] = target: T14, 371 kinases (kinase named in each endpoint) (Homo sapiens, UniProt P11309); details: PIM1
T14 construct: purchased Reaction Biology

[15] = target: T15, 371 kinases (kinase named in each endpoint) (Homo sapiens, UniProt P15056); details: BRAF
T15 construct: purchased Reaction Biology

[16] = target: T16, 371 kinases (kinase named in each endpoint) (Homo sapiens, UniProt P42685); details: FRK/PTK5
T16 construct: purchased Reaction Biology

[17] = target: T17, 371 kinases (kinase named in each endpoint) (Homo sapiens, UniProt Q9P1W9); details: PIM2
T17 construct: purchased Reaction Biology

[18] = target: T18, 371 kinases (kinase named in each endpoint) (Homo sapiens, UniProt Q86UX6); details: STK32C/YANK3
T18 construct: purchased Reaction Biology

[19] = target: T19, 371 kinases (kinase named in each endpoint) (Homo sapiens, UniProt P36507); details: MEK2
T19 construct: purchased Reaction Biology

[20] = target: T20, 371 kinases (kinase named in each endpoint) (Homo sapiens, UniProt P34947); details: GRK5
T20 construct: purchased Reaction Biology

[21] = target: T21, 371 kinases (kinase named in each endpoint) (Homo sapiens, UniProt Q9UF33); details: EPHA6
T21 construct: purchased Reaction Biology

[22] = target: T22, 371 kinases (kinase named in each endpoint) (Homo sapiens, UniProt Q15759); details: P38B/MAPK11
T22 construct: purchased Reaction Biology

[23] = target: T23, 371 kinases (kinase named in each endpoint) (Homo sapiens, UniProt P17252); details: PKCA
T23 construct: purchased Reaction Biology

[24] = target: T24, 371 kinases (kinase named in each endpoint) (Homo sapiens, UniProt Q96S53); details: TESK2
T24 construct: purchased Reaction Biology

[25] = target: T25, 371 kinases (kinase named in each endpoint) (Homo sapiens, UniProt O75460); details: ERN1/IRE1
T25 construct: purchased Reaction Biology

[26] = target: T26, 371 kinases (kinase named in each endpoint) (Homo sapiens, UniProt P41240); details: CSK
T26 construct: purchased Reaction Biology

[27] = target: T27, 371 kinases (kinase named in each endpoint) (Homo sapiens, UniProt Q9H2K8); details: TAOK3/JIK
T27 construct: purchased Reaction Biology

[28] = target: T28, 371 kinases (kinase named in each endpoint) (Homo sapiens, UniProt Q07002); details: CDK18/CYCLIN Y (PCTK3)
T28 construct: purchased Reaction Biology

[29] = target: T29, 371 kinases (kinase named in each endpoint) (Homo sapiens, UniProt O94921); details: CDK14/CYCLIN Y (PFTK1)
T29 construct: purchased Reaction Biology

[30] = target: T30, 371 kinases (kinase named in each endpoint) (Homo sapiens, UniProt Q9UKE5); details: TNIK
T30 construct: purchased Reaction Biology

[31] = target: T31, 371 kinases (kinase named in each endpoint) (Homo sapiens, UniProt Q9Y3S1); details: WNK2
T31 construct: purchased Reaction Biology

[32] = target: T32, 371 kinases (kinase named in each endpoint) (Homo sapiens, UniProt Q04759); details: PKCTHETA
T32 construct: purchased Reaction Biology

[33] = target: T33, 371 kinases (kinase named in each endpoint) (Homo sapiens, UniProt P45984); details: JNK2
T33 construct: purchased Reaction Biology

[34] = target: T34, 371 kinases (kinase named in each endpoint) (Homo sapiens, UniProt P05771); details: PKCB1
T34 construct: purchased Reaction Biology

[35] = target: T35, 371 kinases (kinase named in each endpoint) (Homo sapiens, UniProt P16591); details: FER
T35 construct: purchased Reaction Biology

[36] = target: T36, 371 kinases (kinase named in each endpoint) (Homo sapiens, UniProt Q86Y07); details: VRK2
T36 construct: purchased Reaction Biology

[37] = target: T37, 371 kinases (kinase named in each endpoint) (Homo sapiens, UniProt P37173); details: TGFBR2
T37 construct: purchased Reaction Biology
T37 sequence (P37173 23-567): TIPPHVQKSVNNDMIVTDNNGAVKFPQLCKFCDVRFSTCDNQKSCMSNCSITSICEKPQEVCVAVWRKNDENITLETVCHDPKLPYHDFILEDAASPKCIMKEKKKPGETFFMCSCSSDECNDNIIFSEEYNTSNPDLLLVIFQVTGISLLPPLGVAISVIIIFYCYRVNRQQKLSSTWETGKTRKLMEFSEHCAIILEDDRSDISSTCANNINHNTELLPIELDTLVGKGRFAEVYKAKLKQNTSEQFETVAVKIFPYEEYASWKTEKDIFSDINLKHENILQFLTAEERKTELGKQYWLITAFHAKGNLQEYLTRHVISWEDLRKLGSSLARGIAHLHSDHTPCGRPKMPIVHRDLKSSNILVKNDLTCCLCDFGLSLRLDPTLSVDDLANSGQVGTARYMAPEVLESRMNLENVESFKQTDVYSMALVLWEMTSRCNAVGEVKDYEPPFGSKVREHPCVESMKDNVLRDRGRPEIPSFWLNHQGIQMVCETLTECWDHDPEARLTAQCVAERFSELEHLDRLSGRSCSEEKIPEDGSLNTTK

T24 sequence (Q96S53 whole entry): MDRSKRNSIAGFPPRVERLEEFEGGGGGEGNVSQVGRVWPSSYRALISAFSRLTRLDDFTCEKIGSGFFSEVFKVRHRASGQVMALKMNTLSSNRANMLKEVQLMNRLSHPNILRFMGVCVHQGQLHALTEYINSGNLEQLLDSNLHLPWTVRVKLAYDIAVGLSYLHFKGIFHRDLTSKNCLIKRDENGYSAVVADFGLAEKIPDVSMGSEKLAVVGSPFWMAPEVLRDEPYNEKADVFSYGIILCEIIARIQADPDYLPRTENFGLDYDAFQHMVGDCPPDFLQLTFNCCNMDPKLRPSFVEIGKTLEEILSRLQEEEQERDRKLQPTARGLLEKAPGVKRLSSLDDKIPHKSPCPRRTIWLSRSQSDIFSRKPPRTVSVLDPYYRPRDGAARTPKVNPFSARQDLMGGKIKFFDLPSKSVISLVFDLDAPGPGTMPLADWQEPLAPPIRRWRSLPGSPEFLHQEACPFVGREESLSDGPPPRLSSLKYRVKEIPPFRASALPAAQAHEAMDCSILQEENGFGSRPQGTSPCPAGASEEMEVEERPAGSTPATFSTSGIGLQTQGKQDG
T30 sequence (Q9UKE5 whole entry): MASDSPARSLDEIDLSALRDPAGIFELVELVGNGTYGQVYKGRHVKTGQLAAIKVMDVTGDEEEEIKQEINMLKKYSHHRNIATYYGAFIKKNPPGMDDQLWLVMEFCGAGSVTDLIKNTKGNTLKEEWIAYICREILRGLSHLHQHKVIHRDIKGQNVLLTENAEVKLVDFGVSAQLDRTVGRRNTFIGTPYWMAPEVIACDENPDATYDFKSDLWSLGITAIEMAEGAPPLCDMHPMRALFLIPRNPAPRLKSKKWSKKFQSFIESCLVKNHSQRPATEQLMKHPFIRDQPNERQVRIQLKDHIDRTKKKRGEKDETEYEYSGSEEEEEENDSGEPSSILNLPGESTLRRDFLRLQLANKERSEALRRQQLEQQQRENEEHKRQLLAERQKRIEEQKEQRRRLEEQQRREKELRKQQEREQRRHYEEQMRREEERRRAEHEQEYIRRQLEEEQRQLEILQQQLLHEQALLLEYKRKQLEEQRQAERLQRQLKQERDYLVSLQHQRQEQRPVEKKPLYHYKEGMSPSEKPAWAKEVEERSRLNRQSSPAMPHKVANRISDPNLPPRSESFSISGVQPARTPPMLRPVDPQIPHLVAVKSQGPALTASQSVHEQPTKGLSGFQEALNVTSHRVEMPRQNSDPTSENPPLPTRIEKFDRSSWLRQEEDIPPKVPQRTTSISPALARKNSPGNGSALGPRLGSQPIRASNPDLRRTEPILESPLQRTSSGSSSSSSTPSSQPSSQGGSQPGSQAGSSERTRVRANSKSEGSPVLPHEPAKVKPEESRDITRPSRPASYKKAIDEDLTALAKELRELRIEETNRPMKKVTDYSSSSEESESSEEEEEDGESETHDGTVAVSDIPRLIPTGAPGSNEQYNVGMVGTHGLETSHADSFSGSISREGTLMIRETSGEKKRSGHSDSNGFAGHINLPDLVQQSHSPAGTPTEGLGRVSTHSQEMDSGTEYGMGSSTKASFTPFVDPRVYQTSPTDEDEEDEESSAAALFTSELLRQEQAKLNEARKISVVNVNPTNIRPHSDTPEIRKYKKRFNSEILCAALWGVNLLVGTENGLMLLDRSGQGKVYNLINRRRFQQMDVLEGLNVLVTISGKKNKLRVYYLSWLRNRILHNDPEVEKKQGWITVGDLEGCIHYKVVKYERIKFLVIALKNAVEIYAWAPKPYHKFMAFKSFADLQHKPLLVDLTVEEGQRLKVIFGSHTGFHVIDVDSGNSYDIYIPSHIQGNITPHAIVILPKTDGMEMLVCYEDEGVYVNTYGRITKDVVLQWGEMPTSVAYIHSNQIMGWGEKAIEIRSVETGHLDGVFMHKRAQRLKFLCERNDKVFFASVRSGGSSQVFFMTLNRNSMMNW
T10 sequence (Q96L34 whole entry): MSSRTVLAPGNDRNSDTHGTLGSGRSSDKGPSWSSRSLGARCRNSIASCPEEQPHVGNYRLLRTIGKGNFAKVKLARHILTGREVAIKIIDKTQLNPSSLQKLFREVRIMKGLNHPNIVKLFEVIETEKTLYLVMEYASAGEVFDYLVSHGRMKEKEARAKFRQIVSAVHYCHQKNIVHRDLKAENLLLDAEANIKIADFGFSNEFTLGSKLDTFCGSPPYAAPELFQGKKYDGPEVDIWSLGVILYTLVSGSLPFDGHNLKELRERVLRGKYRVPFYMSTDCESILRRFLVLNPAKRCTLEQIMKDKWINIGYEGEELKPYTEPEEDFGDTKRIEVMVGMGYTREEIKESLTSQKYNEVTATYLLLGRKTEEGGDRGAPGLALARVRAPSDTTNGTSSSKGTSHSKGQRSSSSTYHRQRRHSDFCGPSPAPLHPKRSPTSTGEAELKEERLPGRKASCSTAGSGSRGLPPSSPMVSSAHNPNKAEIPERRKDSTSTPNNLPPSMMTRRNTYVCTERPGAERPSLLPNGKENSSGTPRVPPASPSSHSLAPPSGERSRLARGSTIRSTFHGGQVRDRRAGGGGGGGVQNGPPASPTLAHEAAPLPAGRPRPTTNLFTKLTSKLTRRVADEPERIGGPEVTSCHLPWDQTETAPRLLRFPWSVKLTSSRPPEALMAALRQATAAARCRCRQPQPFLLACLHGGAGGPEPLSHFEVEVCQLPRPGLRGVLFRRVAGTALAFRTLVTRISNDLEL
T36 sequence (Q86Y07 whole entry): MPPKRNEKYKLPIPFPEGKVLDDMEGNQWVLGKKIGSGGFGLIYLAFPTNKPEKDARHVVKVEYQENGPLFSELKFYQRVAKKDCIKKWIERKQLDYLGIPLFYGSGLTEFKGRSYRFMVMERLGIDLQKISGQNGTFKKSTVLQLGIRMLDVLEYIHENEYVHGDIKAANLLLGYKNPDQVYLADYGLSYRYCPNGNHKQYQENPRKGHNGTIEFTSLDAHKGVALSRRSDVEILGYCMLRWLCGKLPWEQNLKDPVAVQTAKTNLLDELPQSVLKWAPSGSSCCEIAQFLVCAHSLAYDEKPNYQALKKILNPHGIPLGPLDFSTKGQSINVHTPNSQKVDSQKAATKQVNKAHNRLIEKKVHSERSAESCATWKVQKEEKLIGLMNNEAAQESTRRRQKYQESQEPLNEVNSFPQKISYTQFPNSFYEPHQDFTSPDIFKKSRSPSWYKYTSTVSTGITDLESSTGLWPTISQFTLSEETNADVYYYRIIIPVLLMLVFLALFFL
T19 sequence (P36507 whole entry): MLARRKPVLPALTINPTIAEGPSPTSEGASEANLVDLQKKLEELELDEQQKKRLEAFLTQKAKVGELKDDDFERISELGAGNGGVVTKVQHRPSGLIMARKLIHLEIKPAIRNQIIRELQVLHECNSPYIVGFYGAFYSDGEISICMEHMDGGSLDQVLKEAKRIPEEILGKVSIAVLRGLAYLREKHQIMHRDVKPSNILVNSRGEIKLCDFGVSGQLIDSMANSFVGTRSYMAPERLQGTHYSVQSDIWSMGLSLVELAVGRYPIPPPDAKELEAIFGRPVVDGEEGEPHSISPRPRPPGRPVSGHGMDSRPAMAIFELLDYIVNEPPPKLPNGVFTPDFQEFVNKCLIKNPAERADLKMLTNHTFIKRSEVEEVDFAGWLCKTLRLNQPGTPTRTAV
T20 sequence (P34947 whole entry): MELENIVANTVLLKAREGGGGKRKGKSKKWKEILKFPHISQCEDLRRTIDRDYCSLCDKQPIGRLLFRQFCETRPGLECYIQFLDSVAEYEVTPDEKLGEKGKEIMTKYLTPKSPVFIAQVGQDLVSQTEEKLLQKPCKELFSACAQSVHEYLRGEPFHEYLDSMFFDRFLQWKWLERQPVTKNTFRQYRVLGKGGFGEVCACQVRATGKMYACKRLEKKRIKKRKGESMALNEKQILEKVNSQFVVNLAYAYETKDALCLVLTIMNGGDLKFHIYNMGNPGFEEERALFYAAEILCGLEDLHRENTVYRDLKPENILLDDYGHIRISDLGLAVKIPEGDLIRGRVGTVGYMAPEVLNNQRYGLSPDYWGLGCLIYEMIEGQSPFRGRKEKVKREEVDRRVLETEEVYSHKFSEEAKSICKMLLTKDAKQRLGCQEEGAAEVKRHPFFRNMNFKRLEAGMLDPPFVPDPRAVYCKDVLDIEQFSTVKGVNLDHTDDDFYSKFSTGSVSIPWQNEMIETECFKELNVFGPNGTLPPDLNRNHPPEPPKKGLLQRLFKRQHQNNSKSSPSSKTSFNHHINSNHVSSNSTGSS

Question: `O=C(O)c1cc(C(F)(F)F)ccc1NCCc1c[nH]c2cc(Br)ccc12` [Compound 5, 2-((2-(6-Bromo-1H-indol-3-yl)ethyl)amino)−5-(trifluoromethyl)benzoic Acid] was tested. Which activity at 10 µM [1] did it give?
Answer: 102.1 ± 0.3%

Question: What about the activity at 10 µM [2] of the same compound?
Answer: 102.4 ± 0.4%

Question: What about the activity at 10 µM [3] of the same compound?
Answer: 136 ± 6.1%

Question: What about the activity at 10 µM [4] of the same compound?
Answer: 89.7 ± 3%

Question: What about the activity at 10 µM [5] of the same compound?
Answer: 76.5 ± 2.7%

Question: And the activity at 10 µM [6]?
Answer: 93.3 ± 1.1%

Question: What about the activity at 10 µM [7] of the same compound?
Answer: 102 ± 1.6%

Question: What about the activity at 10 µM [8] of the same compound?
Answer: 27.5 ± 6.5%

Question: What about the activity at 10 µM [9] of the same compound?
Answer: 20.6 ± 1%

Question: And the activity at 10 µM [10]?
Answer: 69.6 ± 1.3%

Question: And the activity at 10 µM [11]?
Answer: 69.3 ± 1%

Question: And the activity at 10 µM [12]?
Answer: 134 ± 0.4%

Question: What about the activity at 10 µM [13] of the same compound?
Answer: 85.8 ± 1.6%

Question: And the activity at 10 µM [14]?
Answer: 40.6 ± 3.2%

Question: And the activity at 10 µM [15]?
Answer: 98.7 ± 0.5%

Question: And the activity at 10 µM [16]?
Answer: 90.1 ± 1.1%

Question: And the activity at 10 µM [17]?
Answer: 92.4 ± 0.6%

Question: And the activity at 10 µM [18]?
Answer: 100.2 ± 0.6%

Question: And the activity at 10 µM [19]?
Answer: 110.4 ± 0.1%

Question: What about the activity at 10 µM [20] of the same compound?
Answer: 101 ± 1.1%

Question: What about the activity at 10 µM [21] of the same compound?
Answer: 91.9 ± 1.1%

Question: What about the activity at 10 µM [22] of the same compound?
Answer: 140 ± 2.3%

Question: What about the activity at 10 µM [23] of the same compound?
Answer: 123 ± 5.3%

Question: What about the activity at 10 µM [24] of the same compound?
Answer: 78.7 ± 0.8%

Question: And the activity at 10 µM [25]?
Answer: 101 ± 0.6%

Question: What about the activity at 10 µM [26] of the same compound?
Answer: 100.9 ± 0.9%

Question: And the activity at 10 µM [27]?
Answer: 83.3 ± 2.1%

Question: And the activity at 10 µM [28]?
Answer: 99 ± 0.1%

Question: And the activity at 10 µM [29]?
Answer: 114 ± 1.5%

Question: What about the activity at 10 µM [30] of the same compound?
Answer: 51.9 ± 1.4%

Question: What about the activity at 10 µM [31] of the same compound?
Answer: 109.6 ± 0.2%

Question: What about the activity at 10 µM [32] of the same compound?
Answer: 95.5 ± 0.4%

Question: And the activity at 10 µM [33]?
Answer: 89.6 ± 0.4%

Question: And the activity at 10 µM [34]?
Answer: 91%

Question: What about the activity at 10 µM [35] of the same compound?
Answer: 89.6 ± 2%

Question: What about the activity at 10 µM [36] of the same compound?
Answer: 94.6 ± 1%

Question: What about the activity at 10 µM [37] of the same compound?
Answer: 79.2 ± 1.5%
